Read-outs that look alike come from different tables or passages of the source.
What was measured:
[1] = tested on: SHR and WKY rats; test: plasma norepinephrine; assay type: in vivo, rat; conditions: 1 mg/kg i.v.
[2] = tested on: mice with diet-induced obesity; test: intraperitoneal glucose tolerance test in mice on high-fat diet; assay type: in vivo, mouse; conditions: male DIO mice
[3] = tested on: brain anandamide and 2-AG levels; test: brain endocannabinoid levels by LC/MS; conditions: SHR and WKY, bolus i.p. doses, 1 h
[4] = tested on: SHR and WKY rats; test: mean arterial pressure and heart rate in anesthetized rats; assay type: in vivo, rat; conditions: 1 mg/kg i.v.
[5] = target: T1, FAAH (Rattus norvegicus, UniProt P97612); assay type: in vivo; conditions: for ID50, inhibition of brain FAAH activity: i.p., 1 h; for reduction of hepatic FAAH activity: 1 mg/kg i.p.
T1 sequence (P97612 1-579): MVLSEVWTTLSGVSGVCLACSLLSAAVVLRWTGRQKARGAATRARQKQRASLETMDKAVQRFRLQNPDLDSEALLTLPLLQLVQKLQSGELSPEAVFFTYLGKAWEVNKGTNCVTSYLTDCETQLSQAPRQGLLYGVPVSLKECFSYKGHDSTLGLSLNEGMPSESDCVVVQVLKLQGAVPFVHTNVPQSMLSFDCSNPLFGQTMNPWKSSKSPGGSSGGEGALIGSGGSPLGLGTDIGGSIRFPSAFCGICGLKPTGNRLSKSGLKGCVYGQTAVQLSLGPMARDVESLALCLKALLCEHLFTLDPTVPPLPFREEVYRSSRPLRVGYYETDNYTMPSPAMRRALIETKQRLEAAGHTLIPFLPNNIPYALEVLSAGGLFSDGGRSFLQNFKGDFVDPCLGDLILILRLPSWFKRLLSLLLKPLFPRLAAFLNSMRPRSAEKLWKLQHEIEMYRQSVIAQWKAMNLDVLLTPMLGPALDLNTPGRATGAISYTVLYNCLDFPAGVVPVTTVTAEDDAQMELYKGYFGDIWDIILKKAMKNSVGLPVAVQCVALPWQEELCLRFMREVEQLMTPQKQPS

[6] = tested on: Mouse hepatocytes; test: drug levels in hepatocyte suspensions by LC/MS/MS
[7] = target: T2, FAAH (Mus musculus, UniProt O08914); assay type: cell-based; conditions: 100 nM
T2 sequence (O08914 1-579): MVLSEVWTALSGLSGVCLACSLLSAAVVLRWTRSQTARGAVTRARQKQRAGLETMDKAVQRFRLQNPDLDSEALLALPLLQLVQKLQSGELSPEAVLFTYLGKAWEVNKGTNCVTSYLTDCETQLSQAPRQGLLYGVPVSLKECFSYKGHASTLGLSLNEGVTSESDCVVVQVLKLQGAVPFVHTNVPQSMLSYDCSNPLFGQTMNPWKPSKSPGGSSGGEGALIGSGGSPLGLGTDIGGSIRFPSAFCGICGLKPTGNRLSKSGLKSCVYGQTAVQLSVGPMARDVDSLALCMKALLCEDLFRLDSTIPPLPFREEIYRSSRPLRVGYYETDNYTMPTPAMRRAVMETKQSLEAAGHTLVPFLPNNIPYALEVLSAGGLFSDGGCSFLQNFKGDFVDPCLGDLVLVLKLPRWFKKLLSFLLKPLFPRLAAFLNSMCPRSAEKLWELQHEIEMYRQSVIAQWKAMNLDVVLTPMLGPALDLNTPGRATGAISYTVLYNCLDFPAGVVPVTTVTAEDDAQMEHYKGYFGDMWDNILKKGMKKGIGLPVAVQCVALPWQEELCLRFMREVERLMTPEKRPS

[8] = target: T3, human recombinant FAAH (Homo sapiens, UniProt O00519); test: biochemical
T3 sequence (O00519 1-579): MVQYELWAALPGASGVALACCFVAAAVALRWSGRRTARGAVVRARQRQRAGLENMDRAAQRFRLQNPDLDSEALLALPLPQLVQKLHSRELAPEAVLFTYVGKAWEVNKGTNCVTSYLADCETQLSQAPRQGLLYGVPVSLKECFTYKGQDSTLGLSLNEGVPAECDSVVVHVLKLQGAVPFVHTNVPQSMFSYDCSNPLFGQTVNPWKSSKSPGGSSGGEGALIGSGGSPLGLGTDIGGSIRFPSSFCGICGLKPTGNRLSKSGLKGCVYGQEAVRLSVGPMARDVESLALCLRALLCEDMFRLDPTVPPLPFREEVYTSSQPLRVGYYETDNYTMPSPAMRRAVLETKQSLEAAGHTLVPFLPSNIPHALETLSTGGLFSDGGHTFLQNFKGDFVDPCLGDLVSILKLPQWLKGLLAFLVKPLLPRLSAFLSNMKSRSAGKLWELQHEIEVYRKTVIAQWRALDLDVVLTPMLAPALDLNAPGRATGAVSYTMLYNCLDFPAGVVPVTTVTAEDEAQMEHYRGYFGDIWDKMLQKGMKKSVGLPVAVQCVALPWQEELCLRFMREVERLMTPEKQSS

[9] = tested on: anandamide levels in hepatocytes; test: anandamide levels in hepatocytes; assay type: cell-based, mouse; conditions: 100 nM, dense suspension 40 mg/mL
[10] = target: CB1 receptor (Rattus norvegicus, UniProt P20272); test: radioligand displacement, [3H]CP,55940, rat forebrain membranes
[11] = target: T2, FAAH; test: FAAH activity in brain and liver homogenates, drug added in vitro; assay type: biochemical; conditions: 100 nM added in vitro, brain and liver homogenates
[12] = tested on: [3H]anandamide uptake by cultured CCF-STTG1 astrocytoma cells; test: anandamide transport assay; conditions: concentrations up to 20 μmol/L

Chain of CB1 receptor (P20272 whole entry): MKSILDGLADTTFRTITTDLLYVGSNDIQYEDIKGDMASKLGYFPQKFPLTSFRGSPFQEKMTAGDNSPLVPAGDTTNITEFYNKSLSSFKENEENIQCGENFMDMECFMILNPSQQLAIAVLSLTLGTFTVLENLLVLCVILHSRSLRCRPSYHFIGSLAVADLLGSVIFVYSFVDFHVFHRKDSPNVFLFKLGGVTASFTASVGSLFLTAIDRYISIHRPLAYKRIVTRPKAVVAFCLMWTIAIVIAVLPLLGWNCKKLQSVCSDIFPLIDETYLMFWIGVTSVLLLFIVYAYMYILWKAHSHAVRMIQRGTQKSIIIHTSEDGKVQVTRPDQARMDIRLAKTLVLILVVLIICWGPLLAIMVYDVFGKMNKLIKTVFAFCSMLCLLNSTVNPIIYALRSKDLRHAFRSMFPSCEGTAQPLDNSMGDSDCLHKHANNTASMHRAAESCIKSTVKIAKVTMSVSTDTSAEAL

O=S(=O)(F)CCCCCc1ccc(O)cc1 [AM3506, 5-(4-hydroxyphenyl)pentanesulfonyl fluoride]
plasma norepinephrine after treatment ([1]; WKY, baseline 198±11, remained unaffected): 167 ± 35 pg/mL | reduction of plasma norepinephrine ([1]; anesthetized SHR, 30 min): 82±5% | plasma norepinephrine after treatment ([1]; anesthetized SHR, 30 min, […]): 53 ± 12 pg/mL | effect on glucose tolerance ([2]; 1 mg/kg): did not affect glucose tolerance | ipGTT area under the curve (AUC) ([2]; 1 mg/kg i.p. 60 min before glucose, vehicle 352±28): 411 ± 35 mg·h/dL | brain 2-AG levels [3]: remained unaffected | brain anandamide levels [3]: parallel increases | effect on HR ([4]; SHR): marked bradycardia | effect on MAP ([4]; SHR): profound and sustained decrease | effect on MAP and HR ([4]; WKY): only slight changes | ID50, inhibition of brain FAAH activity ([5]; SHR brain): ~0.1 mg/kg | reduction of hepatic FAAH activity ([5]; SHR liver): 11.1±0.4% | ID50, inhibition of brain FAAH activity ([5]; WKY brain): ~0.1 mg/kg | reduction of hepatic FAAH activity ([5]; WKY liver): 6.7±0.2% | recovery of drug from cell-free medium ([6]; 0 to 30 min, no hepatocytes): remained constant | drug level in cell pellets, dense hepatocyte suspension ([6]; 100 nM, 40 mg/mL): below threshold | drug level in medium, dense hepatocyte suspension ([6]; 100 nM, 40 mg/mL): rapidly depleted from the medium | free drug (parent ion) still present in cell-free supernatant ([6]; dilute hepatocyte suspension 1 mg/mL, 100 nM, 10 min, % of drug added at 0 min): 50–55% | FAAH activity in cells, dense hepatocyte suspension ([7]; 40 mg/mL): no measurable change | FAAH activity in cell pellet, dilute hepatocyte suspension ([7]; 30 min, 1 mg wet cell weight/mL): nearly completely blocked | IC50 [8]: 48 nM | anandamide levels in hepatocytes [9]: remained unchanged | Ki [10]: 5770 nM | FAAH activity in tissue homogenates [11]: equally effective in blocking FAAH activity in brain and liver | effect on anandamide transport [12]: did not affect

Source: article PMC3003779 (Chemistry & biology, 2010)
